Experimental data reported in ChEMBL document CHEMBL1201862, “PubChem BioAssay data set” (2004).
Calls of active or inactive are those of the source.

Assays:
[1] = P. falciparum Dd2 growth inhibitors, dose response, SYBR Green, cherry-picked samples (AID 1159567); format: functional, cell-based
[2] = cells; format: functional
[3] = target: Eukaryotic translation initiation factor 4E (Mus musculus, UniProt P63073); assay: eIF4E–eIF4G protein interaction inhibitors, dose response, biochemical, TR-FRET (AID 855); format: functional;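 further: potency for disrupting eIF4E binding to eIF4GI seen as loss of FRET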
[4] = target: T1, Heat shock factor protein 1 (Mus musculus, UniProt P38532); assay: HSF1 potentiators in luciferase reporter cells, confirmation, cell-based, NIH3T3, luminescence, dose retest (AID 435004); format: functional;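 further: stress induced by proteasome inhibitor MG132 added 30 min after compound; luciferase reporter driven by HSF1 response element in NIH3T3 cells; actives raise luminescence as potentiators of the MG132 stress response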
T1 sequence (P38532 whole entry): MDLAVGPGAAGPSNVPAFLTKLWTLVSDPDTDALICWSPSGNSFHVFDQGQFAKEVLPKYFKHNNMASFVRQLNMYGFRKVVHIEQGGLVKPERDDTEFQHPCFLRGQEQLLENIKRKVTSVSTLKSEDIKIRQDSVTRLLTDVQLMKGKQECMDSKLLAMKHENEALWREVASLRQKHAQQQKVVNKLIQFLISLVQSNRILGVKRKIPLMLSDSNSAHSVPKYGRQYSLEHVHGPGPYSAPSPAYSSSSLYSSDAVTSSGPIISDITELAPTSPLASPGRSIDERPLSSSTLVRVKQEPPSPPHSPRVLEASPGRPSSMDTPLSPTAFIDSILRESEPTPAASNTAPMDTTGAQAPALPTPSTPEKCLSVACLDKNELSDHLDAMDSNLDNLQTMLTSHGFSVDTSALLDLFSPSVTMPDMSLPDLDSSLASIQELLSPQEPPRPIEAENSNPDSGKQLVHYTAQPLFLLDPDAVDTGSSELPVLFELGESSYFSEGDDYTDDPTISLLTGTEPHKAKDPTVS

[5] = target: Large T antigen (Simian virus 40, UniProt P03070); format: functional, Betapolyomavirus macacae;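 further: Confirmatory-stage PubChem screen for compounds that inhibit SV40 T antigen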
[6] = target: FAD-linked sulfhydryl oxidase ALR (Homo sapiens, UniProt P55789); assay: inhibitors of human ALR sulfhydryl oxidase, dose response, biochemical, H2O2 detection, luminescence, cherry-pick (AID 493248)
[7] = target: T2, Protein skinhead-1 (Caenorhabditis elegans, UniProt P34707); format: functional
T2 sequence (P34707 whole entry): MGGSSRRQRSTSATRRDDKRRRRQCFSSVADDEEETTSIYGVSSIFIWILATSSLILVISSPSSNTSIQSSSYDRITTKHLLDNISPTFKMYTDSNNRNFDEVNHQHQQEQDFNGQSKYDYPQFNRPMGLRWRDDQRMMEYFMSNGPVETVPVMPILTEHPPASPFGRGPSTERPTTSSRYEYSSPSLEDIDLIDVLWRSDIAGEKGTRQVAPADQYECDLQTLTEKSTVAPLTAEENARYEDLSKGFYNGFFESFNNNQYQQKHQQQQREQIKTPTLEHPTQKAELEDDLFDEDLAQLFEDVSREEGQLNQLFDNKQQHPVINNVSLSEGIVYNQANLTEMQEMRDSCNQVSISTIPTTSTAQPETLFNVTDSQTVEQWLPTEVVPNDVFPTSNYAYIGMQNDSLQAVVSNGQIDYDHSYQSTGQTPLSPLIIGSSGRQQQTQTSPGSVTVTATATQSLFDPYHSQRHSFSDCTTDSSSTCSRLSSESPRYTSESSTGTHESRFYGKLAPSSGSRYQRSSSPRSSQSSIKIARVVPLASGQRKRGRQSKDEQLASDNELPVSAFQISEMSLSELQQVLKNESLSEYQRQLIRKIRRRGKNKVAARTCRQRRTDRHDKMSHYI

[8] = target: T3, Replicative DNA helicase DnaB (Mycobacterium tuberculosis, UniProt P9WMR3); assay: DnaB intein splicing inhibitors, dose response, biochemical, cell-free fluorescence (AID 449749); format: functional
T3 sequence (P9WMR3 whole entry): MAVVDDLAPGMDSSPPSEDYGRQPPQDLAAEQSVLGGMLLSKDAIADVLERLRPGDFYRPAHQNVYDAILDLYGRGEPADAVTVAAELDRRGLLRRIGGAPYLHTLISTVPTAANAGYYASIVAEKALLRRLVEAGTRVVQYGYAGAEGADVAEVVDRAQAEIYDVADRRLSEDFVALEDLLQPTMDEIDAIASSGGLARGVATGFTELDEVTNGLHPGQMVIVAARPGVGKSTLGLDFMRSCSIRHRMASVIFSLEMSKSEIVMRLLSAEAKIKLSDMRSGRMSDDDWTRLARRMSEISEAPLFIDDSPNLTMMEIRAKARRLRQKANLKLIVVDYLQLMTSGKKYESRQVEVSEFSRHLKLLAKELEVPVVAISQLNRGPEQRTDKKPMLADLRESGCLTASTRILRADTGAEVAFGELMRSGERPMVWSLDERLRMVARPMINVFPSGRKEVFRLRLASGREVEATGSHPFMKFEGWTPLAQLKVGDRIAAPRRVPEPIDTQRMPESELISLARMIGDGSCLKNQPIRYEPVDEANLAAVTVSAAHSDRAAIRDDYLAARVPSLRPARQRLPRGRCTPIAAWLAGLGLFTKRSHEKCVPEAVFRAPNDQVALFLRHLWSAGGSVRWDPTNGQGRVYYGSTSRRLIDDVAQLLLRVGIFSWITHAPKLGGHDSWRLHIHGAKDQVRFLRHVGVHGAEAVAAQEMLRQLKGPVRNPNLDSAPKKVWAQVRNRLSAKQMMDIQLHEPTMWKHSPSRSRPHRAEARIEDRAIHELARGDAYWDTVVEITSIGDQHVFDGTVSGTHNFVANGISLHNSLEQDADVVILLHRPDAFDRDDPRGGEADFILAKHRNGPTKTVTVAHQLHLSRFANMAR

[9] = target: T4, Protein RecA (Mycobacterium tuberculosis, UniProt P9WHJ3); assay: Fluorescence Cell-Free Homogeneous Dose Retest to Identify Inhibitors of RecA-Intein Splicing Activity. [Related pubchem assays (depositor defined):AID2097, AID2223, AID489010, AID492950]; format: functional
T4 sequence (P9WHJ3 whole entry): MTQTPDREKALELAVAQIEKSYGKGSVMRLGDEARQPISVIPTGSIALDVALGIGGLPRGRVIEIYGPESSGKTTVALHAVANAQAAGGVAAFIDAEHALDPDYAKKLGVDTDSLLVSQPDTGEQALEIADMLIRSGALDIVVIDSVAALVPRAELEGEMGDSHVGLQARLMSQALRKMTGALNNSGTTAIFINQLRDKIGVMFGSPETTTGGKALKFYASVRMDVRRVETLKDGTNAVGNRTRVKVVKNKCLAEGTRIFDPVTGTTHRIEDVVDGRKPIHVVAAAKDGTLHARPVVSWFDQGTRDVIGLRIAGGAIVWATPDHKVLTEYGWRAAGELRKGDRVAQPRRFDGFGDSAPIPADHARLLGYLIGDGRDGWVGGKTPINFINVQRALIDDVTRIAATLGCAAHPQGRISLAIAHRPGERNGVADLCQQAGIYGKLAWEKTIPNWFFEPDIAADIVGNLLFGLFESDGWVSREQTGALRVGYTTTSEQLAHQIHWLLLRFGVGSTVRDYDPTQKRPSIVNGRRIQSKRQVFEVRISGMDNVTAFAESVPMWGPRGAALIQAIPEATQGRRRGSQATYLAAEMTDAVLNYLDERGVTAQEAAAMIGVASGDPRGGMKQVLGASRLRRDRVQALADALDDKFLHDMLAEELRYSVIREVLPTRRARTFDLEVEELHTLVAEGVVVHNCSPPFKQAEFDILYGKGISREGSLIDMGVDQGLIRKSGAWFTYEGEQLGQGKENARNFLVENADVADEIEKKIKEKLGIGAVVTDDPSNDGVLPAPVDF

[10] = Luminescence Cell-Based Dose Response HTS to Identify Activators of Luciferase Translation or Activity in H4 […] Cells. [Related pubchem assays: 1829 (Project Summary), 1814 (Primary HTS)]; format: functional
[11] = tested on: H4; assay: Luminescence Cell-Based Dose Response HTS to Identify Activators of 5'UTR Stem-Loop Driven Prion Protein mRNA Translation in H4 Neuroglioblastoma Cells. [Related pubchem assays: 1829 (Project Summary), 1814 (Primary HTS)]; format: functional; conditions: Homo sapiens
[12] = target: T5, Rac GTPase-activating protein 1 (Homo sapiens, UniProt Q9H0H5); assay: MgcRacGAP GTPase-activating activity inhibitors, confirmation, biochemical, ADP Hunter fluorescence, primary and confirmatory (AID 624330); format: functional
T5 sequence (Q9H0H5 whole entry): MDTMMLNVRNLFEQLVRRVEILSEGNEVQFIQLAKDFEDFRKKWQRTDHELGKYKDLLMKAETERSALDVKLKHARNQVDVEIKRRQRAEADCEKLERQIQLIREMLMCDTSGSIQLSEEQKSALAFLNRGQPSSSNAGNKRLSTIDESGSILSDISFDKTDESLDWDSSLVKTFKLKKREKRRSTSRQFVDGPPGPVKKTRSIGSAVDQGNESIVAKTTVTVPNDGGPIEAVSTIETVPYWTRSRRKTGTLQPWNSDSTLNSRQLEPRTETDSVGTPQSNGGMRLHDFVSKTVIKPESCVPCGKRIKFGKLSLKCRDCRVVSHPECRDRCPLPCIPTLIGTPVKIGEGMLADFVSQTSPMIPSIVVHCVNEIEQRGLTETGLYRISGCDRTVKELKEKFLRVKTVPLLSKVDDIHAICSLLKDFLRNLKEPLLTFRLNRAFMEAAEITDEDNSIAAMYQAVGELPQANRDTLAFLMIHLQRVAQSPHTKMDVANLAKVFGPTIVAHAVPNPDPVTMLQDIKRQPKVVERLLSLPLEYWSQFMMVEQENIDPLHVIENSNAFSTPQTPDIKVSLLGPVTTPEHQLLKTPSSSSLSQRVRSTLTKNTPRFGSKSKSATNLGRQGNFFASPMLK

Sequence of Large T antigen (P03070 whole entry): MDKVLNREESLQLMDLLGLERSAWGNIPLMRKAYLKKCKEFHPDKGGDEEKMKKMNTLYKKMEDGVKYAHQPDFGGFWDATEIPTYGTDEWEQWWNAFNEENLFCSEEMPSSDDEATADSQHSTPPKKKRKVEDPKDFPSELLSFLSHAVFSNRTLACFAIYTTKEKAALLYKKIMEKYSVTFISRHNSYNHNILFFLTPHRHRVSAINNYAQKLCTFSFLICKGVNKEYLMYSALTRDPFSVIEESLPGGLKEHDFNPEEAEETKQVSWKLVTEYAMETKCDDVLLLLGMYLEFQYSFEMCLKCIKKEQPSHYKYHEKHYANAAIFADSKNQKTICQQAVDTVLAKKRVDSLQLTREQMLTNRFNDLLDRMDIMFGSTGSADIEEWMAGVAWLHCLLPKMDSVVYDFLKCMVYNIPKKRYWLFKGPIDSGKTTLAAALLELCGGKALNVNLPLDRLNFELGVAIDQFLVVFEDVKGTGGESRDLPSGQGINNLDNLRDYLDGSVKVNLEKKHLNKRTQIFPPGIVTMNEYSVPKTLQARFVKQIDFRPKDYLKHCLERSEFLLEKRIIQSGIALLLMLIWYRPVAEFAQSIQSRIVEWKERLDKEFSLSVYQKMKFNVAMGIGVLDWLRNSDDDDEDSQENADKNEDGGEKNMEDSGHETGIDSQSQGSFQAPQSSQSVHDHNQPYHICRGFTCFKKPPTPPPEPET
Sequence of Eukaryotic translation initiation factor 4E (P63073 whole entry): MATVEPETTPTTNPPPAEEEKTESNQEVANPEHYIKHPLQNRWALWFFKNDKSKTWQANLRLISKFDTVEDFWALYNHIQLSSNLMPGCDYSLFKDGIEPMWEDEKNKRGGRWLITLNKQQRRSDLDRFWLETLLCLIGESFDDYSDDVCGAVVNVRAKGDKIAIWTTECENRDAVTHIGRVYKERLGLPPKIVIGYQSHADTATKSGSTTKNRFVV
Sequence of FAD-linked sulfhydryl oxidase ALR (P55789 whole entry): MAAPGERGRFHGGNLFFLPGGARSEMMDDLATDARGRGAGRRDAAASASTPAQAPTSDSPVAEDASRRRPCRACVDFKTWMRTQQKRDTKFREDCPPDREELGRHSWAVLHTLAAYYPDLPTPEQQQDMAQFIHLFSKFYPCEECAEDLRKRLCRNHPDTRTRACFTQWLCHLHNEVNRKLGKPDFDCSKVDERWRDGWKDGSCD

C[C@@H]1CN([C@@H](C)CO)C(=O)c2cc(C#Cc3ccccc3)cnc2O[C@H]1CN(C)C(=O)CCN1CCCCC1
AC50 [1]: 3.03 µM (active)

COC(=O)CC(=O)N1CCN(c2ccc(Cl)c(Cl)c2)CC1
IC50 [2]: 25.5 µM (active)

O=C(CSc1nnc(-c2ccccc2)n1C1CCCCC1)Nc1ccc(S(=O)(=O)Nc2ccccn2)cc1
IC50 [3]: > 64 µM (inactive)

CCc1ccccc1NC1=NCC(=O)N1C1CCCCC1
EC50 [4]: > 260 µM (inactive)

COc1ccc(S(=O)(=O)N2CCC(C(=O)NCc3cccnc3)CC2)cc1C
EC50 [4]: > 260 µM (inactive)

COc1ccc2c3c(n(C)c2c1)[C@@H](CO)N(C(=O)Nc1ccc(F)cc1)CC31CN(C(=O)c2ccc3c(c2)OCO3)C1
AC50 [1]: 5.67 µM (active)

CCCNC(=O)Nc1ccc2c(c1)OC[C@@H](C)N(CC1CCCC1)C[C@@H](C)[C@H](OC)CN(C)C2=O
AC50 [1]: 6.1 µM (active)

CN1CCC(O)(c2ccccc2)C(C(=O)c2ccccc2)C1 (centres undefined)
IC50 [2]: 36.1 µM (active)

CN(C)c1ccc(NC(=O)CSc2nc3c(c(=O)[nH]2)CCCC3)cc1
IC50 [5]: 5.87 µM (active)

Cc1ccc(CN2CCN(/N=C/c3ccc(C)s3)CC2)c(C)c1
EC50 [4]: > 260 µM (inactive)

CC(C)(C)n1nnnc1C(c1ccncc1)N1CCN(c2ccc(O)cc2)CC1 (centres undefined)
IC50 [5]: 13.9 µM (active) | AC50 [6]: 3.48 µM (active)

CCNC(S)=Nc1cc(OCC)c(N2CCOCC2)cc1OCC
IC50 [5]: > 100 µM (active)

CC1CN(C(=O)c2cccs2)CCN1C(=O)c1cccs1 (centres undefined)
IC50 [7]: > 100 µM (inactive)

O=C(NCc1ccc(N2CCCC2=O)cc1)Nc1ccccc1
EC50 [4]: > 260 µM (inactive)

CCN(C(=O)c1ccco1)c1nc(-c2ccc(OC)cc2)cs1
IC50 [7]: > 100 µM (inactive)

O=C(C1CCCC1)N1CC[C@@H]2[C@H](CO)Nc3ccc(Br)cc3[C@@H]21
AC50 [1]: 12.7 µM (active)

CCC(=O)c1ccc(OCC(=O)OCC(=O)c2cc(C)n(C3CC3)c2C)cc1
IC50 [2]: 9.8 µM (active)

O=C(c1ccccc1)c1cnc2cc3c(cc2c1O)OCCO3
IC50 [7]: > 100 µM (inactive)

Sc1nnc(-c2ccco2)n1/N=C/c1ccc(Br)s1
IC50 [3]: > 64 µM (inactive)

Cc1cc(N2CCOCC2)n2nc(C)c(-c3ccccc3)c2n1
IC50 [3]: > 64 µM (inactive)

O=C1CN(C(=O)c2cccs2)c2ccccc2N1
IC50 [3]: > 64 µM (inactive)

CN(C)c1ccc(NC(=O)c2ccc(N3CCOCC3)nc2)cc1
IC50 [5]: 6.98 µM (active)

COc1cc(OC)cc(OC(=O)c2ccc3c(=O)n4c(nc3c2)CCC4)c1
IC50 [2]: 9.14 µM (active)

O=C(NCCN1C(=O)C2C3C=CC(C3)C2C1=O)Nc1ccccc1O (centres undefined)
IC50 [7]: > 100 µM (inactive)

Cc1ccc(S(=O)(=O)Cc2cc(F)c([N+](=O)[O-])cc2[N+](=O)[O-])cc1
IC50 [5]: 4.86 µM (active) | AC50 [8]: 16.6 µM (active) | EC50 [9]: 17.2 µM (active)

NC(=O)c1ccccc1/N=C/c1ccc2ccccc2c1
EC50 [10]: 1.14 µM (active) | EC50 [11]: 197 nM (active)

COc1cc(/C=N/Nc2nc(N3CCCC3)nc(N3CCCC3)n2)ccc1O
IC50 [5]: 15.2 µM (active) | IC50 [12]: 64.3 µM (active)

CCOC(=O)COc1ccc(C2CC(C)=NN2c2ccccc2)cc1 (centres undefined)
IC50 [2]: 4.31 µM (active)

CCCC(=O)N1CCC2(CC1)CN(Cc1ccncc1)[C@@H](CO)c1[nH]c3cc(OC)ccc3c12
AC50 [1]: 7.29 µM (active)

O=C(NCCO)c1cccc(-c2ccc3nncn3c2)c1
IC50 [7]: > 100 µM (inactive)

CCOc1ccc(OCC)c(NC(=O)CSCC(=O)O)c1
IC50 [7]: > 100 µM (inactive)

c1cc2c(nn1)CCc1nonc1-2
IC50 [7]: > 100 µM (inactive)

Cc1ccc2c([N+](=O)[O-])c(C)ccc2n1
IC50 [7]: > 100 µM (inactive)

CN1CCN(c2ccc(NC(=O)c3ccc(Oc4ccccc4)cc3)cc2)CC1
IC50 [7]: 23.6 µM (active)
